# Experimental data reported in ChEMBL document CHEMBL4819058, “An amide mimic of desTHPdactylolide: Total synthesis and antiproliferative evaluation” (Bioorg Med Chem Lett, 2021).
# Assays:
# PC-3 [1] = assay: Antiproliferative activity against Docetaxel-resistant human PC-3 cells assessed as reduction in cell viability incubated for 3 days by WST-1 assay; assay type: functional, cell-based; conditions: PC-3, 72 h
# DU-145 [2] = assay: Antiproliferative activity against Docetaxel-resistant human DU-145 cells assessed as reduction in cell viability incubated for 3 days by WST-1 assay; assay type: functional, cell-based; conditions: DU-145, 72 h
# PC-3 [3] = assay: Antiproliferative activity against androgen-insensitive human PC-3 cells assessed as reduction in cell viability incubated for 3 days by WST-1 assay; assay type: functional, cell-based; conditions: PC-3, 72 h
# LNCaP = assay: Antiproliferative activity against androgen-insensitive human LNCaP cells assessed as reduction in cell viability incubated for 3 days by WST-1 assay; assay type: functional, cell-based; conditions: 72 h
# DU-145 [4] = assay: Antiproliferative activity against androgen-insensitive human DU-145 cells assessed as reduction in cell viability incubated for 3 days by WST-1 assay; assay type: functional, cell-based; conditions: DU-145, 72 h
# [5] = Resistance index, ratio of IC50 for antiproliferative activity against human DU145/DTX cells to IC50 for antiproliferative activity against human DU145 cells; assay type: functional
# [6] = Resistance index, ratio of IC50 for antiproliferative activity against human PC-3/DTX cells to IC50 for antiproliferative activity against human PC-3 cells; assay type: functional
IC50 (PC-3 [1]) [µM],IC50 (DU-145 [2]) [µM],IC50 (PC-3 [3]) [µM],IC50 (LNCaP) [µM],IC50 (DU-145 [4]) [µM],SMILES,Ratio IC50 [5],Ratio IC50 [6]
> 12.5,> 12.5,> 12.5,> 12.5,11.1,C/C1=C/C=C/C(=O)N[C@@H](CO)C/C(C)=C/COCC/C=C/C(=O)C1,,
10.2,10.2,9.76,10.9,8.48,C/C1=C/C=C/C(=O)N[C@@H](C=O)C/C(C)=C/COCC/C=C/C(=O)C1,1.2,1.05
4.4,7.36,7.7,6.26,4.87,COc1ccc(COC[C@H]2C/C(C)=C/COCC/C=C/C(=O)C/C(C)=C\C=C\C(=O)N2)cc1,1.51,0.57
2.34,,,,,CC(=O)O[C@@]12CO[C@@H]1C[C@H](O)[C@@]1(C)C(=O)[C@H](O)C3=C(C)[C@@H](OC(=O)[C@H](O)[C@@H](NC(=O)OC(C)(C)C)c4ccccc4)C[C@@](O)([C@@H](OC(=O)c4ccccc4)[C@H]21)C3(C)C [DOCETAXEL ANHYDROUS],,
